{
  "source": "patent US7265155B2",
  "about": "(NBS Pharmaceuticals, Inc., priority 1996, dated 2007)",
  "key": {"chronic spinalized rat [1]": {"test_system": "chronic spinalized rat", "test": "Spasticity scores elicited by a metal probe in chronic spinally transected rats", "type": "in vivo", "conditions": "300 mg/kg i.p.", "text": "In these studies, male albino Holtzman-derived rats (Harlan Sprague-Dawley Laboratories) weighing 270-530 grams were used as subjects. The animals were housed independently and had continuous access to food and water throughout the experiments.\nAll procedures were reviewed and approved by the Institutional Animal Care and Use Committee. Animals were anesthetized using a mixture of isoflurane and oxygen at a flow rate of 4 liters/minute.\nThe rats were then placed in a stereotaxic frame and anesthesia was maintained. An incision was made so that the paraspinal muscles could be retracted and a laminectomy performed between T6-T9. A one- to two-millimeter portion of the spinal cord was removed by evacuation and replaced with Gel foam to reduce bleeding, after which the incision was closed in layers.\nFollowing the transection, rats were placed in a room in which the ambient temperature was raised to about 80° F. with a space heater to maintain body temperature. On the following morning post-surgery, the hindquarters of the spinalized rats were bathed and their urine expressed manually by applying pressure to their bladders. Experiments were conducted between 21 and 28 days after surgery. For the first two weeks, these rats were given 0.25 ml of the antibiotic Sulfatrim Pediatric Suspension orally to prevent bladder infection.\nWithin approximately two weeks, all animals regained bladder control and were no longer given antibiotic treatment. Advokat, Brain Res. 684: 8 (1995). […]\nInitial assessment of spasticity was performed by the subjective scoring method of rating the resulting spasticity response elicited with an innocuous stimulus, i.e., a metal probe, that was pressed against the lower abdomen at four specific sites. The spastic reaction was evaluated for each of the four trials using a scale ranging from zero (no spastic response in all four trials) to four (a maximum, tonic-clonic reaction elicited in all four trials). […] These raw or normalized scores were analyzed with a one-way repeated measures ANOVA."}, "amygdala-kindled rat": {"test_system": "amygdala-kindled rat", "test": "Anticonvulsant activity in the fully amygdala-kindled rat", "type": "in vivo", "conditions": "oral dosing, sixty minutes before stimulation", "protocol": "Isovaleramide was evaluated for its ability to block the expression of amygdala-kindled seizures in fully kindled rats. Isovaleramide was evaluated for its ability to block the kindled motor seizure (seizure scores of 4 and 5) and limbic behavioral seizures (seizure score between 1-3) as well as to affect changes in afterdischarge duration.\nAdult, male Sprague-Dawley rats weighing at least 230 gr were implanted with a teflon-coated bipolar electrode sterotaxically placed in the anterior basolateral nucleus of the amygdala under ketamine and xylazine anesthesia. The electrode was implanted at the following coordinates with Bregma as zero: AP-2.2 mm, ML-4.7 mm, DV-8.7 mm. After a one-week recovery period, animals were kindled to Stage 5 behavioral seizures using a stimulus consisting of a 50 Hz, 1 sec train of 1 ms biphasic 150 uA pulses that were delivered once daily until 10 consecutive stage 5 seizures were evoked. Testing of isovaleramide was initiated after a one-week, stimulus-free period. On the compound test day, rats displaying a stage 5 seizure were divided into multiple treatment groups (i.e., vehicle control and isovaleramide treatment). Sixty minutes after oral dosing, individual rats received a 300 uA, 1 sec duration stimulation and their seizure score and afterdischarge duration recorded. Seizure score was classified according to Racine (Electroencephalogr. Clin. Neurophysiol. 32:281-294, (1972): stage 0: no abnormal behavior; stage 1: mouth or facial movements; stage 2: mouth or facial movements and head nodding; stage 3: stage 2 and forelimb clonus; stage 4: stage 3 and rearing; stage 5: stage 4 and falling. A score of 2-3 represents a focal seizure while a score of 4-5 represents secondarily generalized seizures. Afterdischarge duration was the total duration of the amygdala electroencephalogram spikes with an amplitude of at least twice the amplitude of the prestimulus recording and a frequency greater than 1/sec."}, "[2]": {"conditions": "cited from earlier work"}, "chronic spinalized rat [3]": {"test_system": "chronic spinalized rat", "test": "Flexor reflex (EMG) in the chronic spinalized rat", "type": "in vivo", "conditions": "300 mg/kg p.o.; 30, 60, 90 and 120 minutes post-administration", "protocol": "With reference to FIG. 3, the polysynaptic flexor-reflex responses, to test stimuli which activate high-threshold afferents, were recorded as EMG activity from the ipsilateral hamstring muscle. Supramaximal electric shocks were applied to the hindpaw, and recording electrodes were placed in the biceps femoris semitendinosus muscle. Five sets of stimuli were made at each time point. The flexor reflex was recorded, in both the pre-drug and the post-drug periods, every 30 minutes once a stable baseline response was achieved. See Hao et al., Eur. J. Pharmacol. 191: 407 (1990).\nThus, the responses were determined in spinalized rats by observing the flexor-reflex response (FIG. 3) before treatment and at each of 30, 60, 90, and 120 minutes following administration of isovaleramide (300 mg/kg p.o.), baclofen (10 mg/kg s.c.) and vehicle (water, 12 ml/kg p.o.), respectively.\nIn FIG. 4, the responses from FIG. 3 and additional doses of isovaleramide and baclofen are converted to a total-area-under-the-curve format, covering the entire, two-hour measurement period. […] Between the drug-treated groups, no differences were found in total reduction of the flexor reflex over the two-hour period (pairwise multiple comparison, Student-Newman-Keuls method)."}, "[4]": {"test_system": "Frings audiogenic seizure-susceptible mouse", "test": "Frings audiogenic seizure-susceptible mouse model of epilepsy", "type": "in vivo", "conditions": "for ED50: Mus musculus", "text": "One useful model is provided by the Frings audiogenic seizure-susceptible mouse, a model of reflex epilepsy. At the time of testing, individual mice are placed into a round Plexiglas chamber and exposed to a sound stimulus of 110 decibels, 11 kHz, for 20 seconds. Animals not displaying tonic hindlimb extensions were considered protected. In addition, the seizure score for each mouse can be recorded as: (1) running for less than 10 seconds; (2) running for greater than 10 seconds; (3) clonic activity of limbs and/or vibrissae; (4) forelimb extension/hindlimb flexion; and (5) hindlimb extension.\nThe average seizure score can be calculated for each group of mice employed in the dose-response study. At each dose, mice are also tested on a rotarod for testing of motor impairment (toxicity). Testing for motor impairment on the rotarod involves placing a mouse for a three-minute trial period on a one-inch diameter rod rotating at six revolutions per minute. If the mouse falls off of the rotating rod three times within the three-minute time period, it is considered a toxic response."}},
  "note": "Entries after “also recorded” stand apart in the source; their conditions may differ. Like-named read-outs stand apart in the source and are kept apart here. Marks after values point to notes of the source that are not given here.",
  "data": [
    {"smiles": "CC(C)CC(N)=O", "note": "[Isovaleramide, isovaleramide]", "values": [
      {"measurement": "overt behavioral toxicity or motor impairment", "setting": "chronic spinalized rat [1]", "result": "No overt behavioral toxicity or motor impairment was observed"},
      {"measurement": "reduction of spasticity scores", "setting": "chronic spinalized rat [1]; 15, 30, 60 and 120 minutes post-administration", "result": "45-65%"},
      {"measurement": "spasticity scores by the next day", "setting": "chronic spinalized rat [1]; 1440 minutes (24 hours)", "result": "essentially returned to baseline values"},
      {"measurement": "afterdischarge duration", "setting": "amygdala-kindled rat", "result": "decreased"},
      {"measurement": "generalized seizure responses of fully kindled rats", "setting": "amygdala-kindled rat", "result": "effective in reducing in a dose-dependent manner the generalized seizure responses; also recorded: effective in reducing, in a dose-dependent manner, the generalized seizure responses"},
      {"measurement": "mean seizure score", "setting": "amygdala-kindled rat", "result": "decreased"},
      {"measurement": "acute toxicity in vivo", "setting": "[2]", "result": "low acute toxicity in vivo"},
      {"measurement": "magnitude of the flexor reflex", "setting": "chronic spinalized rat [3]", "result": "reduce the magnitude of the flexor-reflex responses, at all time points; also recorded: significant decrease in the magnitude of the flexor reflex, comparable to that observed with baclofen"},
      {"measurement": "Number Protected of Eight Mice Tested", "setting": "[4]; 75 mg/kg i.p., 15 minutes", "result": 1},
      {"measurement": "Seizure Score ± S.E.M.", "setting": "[4]; 75 mg/kg i.p., 15 minutes", "result": "4.4 ± 0.6"},
      {"measurement": "Seizure Score ± S.E.M.", "setting": "[4]; 100 mg/kg oral", "result": "4.5 ± 0.5"},
      {"measurement": "Number Protected of Eight Mice Tested", "setting": "[4]; 100 mg/kg oral, measured at 30 minutes", "result": 1},
      {"measurement": "Number Protected of Eight Mice Tested", "setting": "[4]; 112.5 mg/kg i.p., 15 minutes", "result": 2},
      {"measurement": "Seizure Score ± S.E.M.", "setting": "[4]; 112.5 mg/kg i.p., 15 minutes", "result": "4.0 ± 0.6"},
      {"measurement": "Number Protected of Eight Mice Tested", "setting": "[4]; 150 mg/kg i.p., 15 minutes", "result": 6},
      {"measurement": "Seizure Score ± S.E.M.", "setting": "[4]; 150 mg/kg i.p., 15 minutes", "result": "2.0 ± 0.6"},
      {"measurement": "Seizure Score ± S.E.M.", "setting": "[4]; 200 mg/kg oral", "result": "2.9 ± 0.8"},
      {"measurement": "Number Protected of Eight Mice Tested", "setting": "[4]; 200 mg/kg oral, measured at 30 minutes", "result": 4},
      {"measurement": "Number Protected of Eight Mice Tested", "setting": "[4]; 300 mg/kg i.p., 15 minutes", "result": 8},
      {"measurement": "Seizure Score ± S.E.M.", "setting": "[4]; 300 mg/kg i.p., 15 minutes", "result": "1.0 ± 0"},
      {"measurement": "Seizure Score ± S.E.M.", "setting": "[4]; 300 mg/kg oral", "result": "1.4 ± 0.5"},
      {"measurement": "Number Protected of Eight Mice Tested", "setting": "[4]; 300 mg/kg oral, measured at 30 minutes", "result": 7},
      {"measurement": "Seizure Score ± S.E.M.", "setting": "[4]; 600 mg/kg oral", "result": "0.25 ± 0.25"},
      {"measurement": "Number Protected of Eight Mice Tested", "setting": "[4]; 600 mg/kg oral, measured at 30 minutes", "result": 8},
      {"measurement": "Seizure Score ± S.E.M.", "setting": "[4]; 1500 mg/kg oral", "result": "0.6 ± 0.2"},
      {"measurement": "Number Protected of Eight Mice Tested", "setting": "[4]; 1500 mg/kg oral, tested at 4 hours", "result": "8^b"},
      {"measurement": "Seizure Score ± S.E.M.", "setting": "[4]; 2000 mg/kg oral", "result": "0 ± 0"},
      {"measurement": "Number Protected of Eight Mice Tested", "setting": "[4]; 2000 mg/kg oral, tested at 4 hours, only seven mice tested", "result": "7^b,d"},
      {"measurement": "ED50", "setting": "[4]; ip, 0.25 h, i.p., 15 minutes, read-out: ED50 for protection against tonic extension", "result": 126, "unit": "mg/kg"},
      {"measurement": "ED50", "setting": "[4]; oral, read-out: ED50 for protection", "result": 186, "unit": "mg/kg"},
      {"measurement": "time course of anticonvulsant activity", "setting": "[4]; i.p.", "result": "noted as early as 15 minutes, but decreased substantially by two hours"},
      {"measurement": "seizure score, dose dependence", "setting": "[4]; i.p., 15 minutes", "result": "dose-dependent reduction in seizure score"},
      {"measurement": "anticonvulsant activity when administered orally", "setting": "[4]; oral", "result": "displayed anticonvulsant activity when administered orally"}
    ]}
  ]
}
